Measured values reported in ChEMBL document CHEMBL1177713, “Discovery of 3-[2-(imidazo[1,2-b]pyridazin-3-yl)ethynyl]-4-methyl-N-{4-[(4-methylpiperazin-1-yl)methyl]-3-(trifluoromethyl)phenyl}benzamide (AP24534), a potent, orally active pan-inhibitor of breakpoint cluster region-abelson (BCR-ABL) kinase including the T315I gatekeeper mutant” (J Med Chem, 2010).

Assays:
[1] = test system: BaF3; test: cells; conditions: Mus musculus, BaF3, 72 h
Description: Antiproliferative activity against mouse BA/F3 cells after 3 days by MTS assay

[2] = test system: BaF3; test: cells; conditions: Mus musculus, BaF3, 72 h; remark: listed apart in the source
Description: Antiproliferative activity against mouse BA/F3 cells expressing wild type ABL after 3 days by MTS assay

[3] = test system: BaF3; test: cells; conditions: Mus musculus, BaF3, 72 h; remark: listed apart in the source
Description: Antiproliferative activity against mouse BA/F3 cells expressing ABL T315I mutant after 3 days by MTS assay

[4] = Half life in CD rat at 5 mg/kg, iv by LC-MS/MS analysis; format: ADME, organism-based; design: dose 5 mg/kg, route intravenous; conditions: in vivo
[5] = Tmax in CD rat at 15 mg/kg, po by LC-MS/MS analysis; format: ADME, organism-based; design: dose 15 mg/kg, route oral; conditions: in vivo
[6] = Oral bioavailability in CD rat at 15 mg/kg by LC-MS/MS analysis; format: ADME, organism-based; conditions: in vivo
[7] = Half life in mouse at 30 mg/kg, po by LC-MS/MS analysis; conditions: in vivo
[8] = Cmax in CD rat at 15 mg/kg, po by LC-MS/MS analysis; format: ADME, organism-based; design: dose 15 mg/kg, route oral; conditions: CD, in vivo
[9] = test system: Rattus norvegicus; test: Dose normalized AUC (0 to 24 hrs) in CD rat at 15 mg/kg, po by LC-MS/MS analysis; format: ADME, organism-based; design: time < 24 hr, dose 15 mg/kg, route oral; conditions: in vivo
[10] = Half life in CD rat at 15 mg/kg, po by LC-MS/MS analysis; format: ADME, organism-based; design: dose 15 mg/kg, route oral; conditions: in vivo
[11] = AUC (0 to 24 hrs) in mouse at 30 mg/kg, po by LC-MS/MS analysis; conditions: plasma
[12] = Clearance in CD rat at 5 mg/kg, iv by LC-MS/MS analysis; format: ADME, organism-based; design: dose 5 mg/kg, route intravenous; conditions: in vivo
[13] = Volume of distribution in CD rat at 5 mg/kg, iv by LC-MS/MS analysis; format: ADME, organism-based; design: dose 5 mg/kg, route intravenous; conditions: in vivo
[14] = Cmax in mouse at 30 mg/kg, po by LC-MS/MS analysis; conditions: in vivo

Row | Structure (SMILES) | IC50 [1] | IC50 [2] | IC50 [3] | further results
1 | Cc1ccc(C(=O)Nc2ccc(CN3CCN(C)CC3)c(Cl)c2)cc1C#Cc1cnc2cccnn12 | 1920 nM | 2.3 nM | 210 nM | 
2 | Cc1ccc(C(=O)Nc2ccc(CN3CCN(C)CC3)c(C(F)(F)F)c2)cc1C#Cc1cnc2c(c1)OCC(=O)N2 | 369 nM | 3 nM | 17 nM | 
3 | Cc1ccc(C(=O)Nc2ccc(CN3CCOCC3)c(C(F)(F)F)c2)cc1C#Cc1cnc2ccccn12 | 7440 nM | 2.1 nM | 727 nM | 
4 | CN1CCN(Cc2ccc(NC(=O)c3ccc(Cl)c(C#Cc4cnc5cccnn45)c3)cc2C(F)(F)F)CC1 | 1870 nM | 2.5 nM | 8.6 nM | half-life [4]: 9.9 h; Tmax [5]: 6 h; bioavailability [6]: 79.2%; half-life [7]: 2.9 h; Cmax [8]: 302 ng/mL; AUC [9]: 673.8 ng·h/mL/mg/kg; half-life [10]: 20.2 h; AUC(0-t) at 24 h [11]: 6080 ng·h/mL; clearance [12]: 19.7 mL/min/kg; Vd [13]: 16.7 L/kg; Cmax [14]: 441 ng/mL
5 | Cc1ccc(C(=O)Nc2ccc(CN3CCN(C(C)C)CC3)c(C(F)(F)F)c2)cc1C#Cc1cnc2ccccn12 | 1650 nM | 8 nM | 43 nM | 
6 | Cc1ccc(C(=O)Nc2ccc(CN3CC[C@H](N(C)C)C3)c(C(F)(F)F)c2)cc1C#Cc1cnc2ccccn12 | 812 nM | 5.4 nM | 58 nM | 
7 | CCN1CCN(Cc2ccc(NC(=O)c3ccc(C)c(C#Cc4cnc5ccccn45)c3)cc2C(F)(F)F)CC1 | 1950 nM | 5.2 nM | 49 nM | 
8 | Cc1ccc(C(=O)Nc2ccc(CN3CCN(C)CC3)c(C(F)(F)F)c2)cc1C#Cc1cnc2cnccn12 | 1290 nM | 0.9 nM | 13 nM | half-life [4]: 3.5 h; Tmax [5]: 4 h; bioavailability [6]: 16.7%; half-life [7]: 2.7 h; Cmax [8]: 57.8 ng/mL; AUC [9]: 57 ng·h/mL/mg/kg; half-life [10]: 5 h; AUC(0-t) at 24 h [11]: 2690 ng·h/mL; clearance [12]: 48.3 mL/min/kg; Vd [13]: 14.7 L/kg; Cmax [14]: 521 ng/mL
9 | Cc1ccc(C(=O)Nc2cccc(C(F)(F)F)c2)cc1C#Cc1cnc2cccnn12 | 10000 nM | 10 nM | 1130 nM | 
10 | Cc1cn(-c2cc(NC(=O)c3ccc(C)c(/C=C/n4cnc5c(NC6CC6)ncnc54)c3)cc(C(F)(F)F)c2)cn1 |  | 7.3 nM |  | 
11 | Cc1ccc(C(=O)Nc2ccc(CN3CCNCC3)c(C(F)(F)F)c2)cc1C#Cc1cnc2cccnn12 | 915 nM | 4 nM | 34 nM | 
12 | Cc1ccc(C(=O)Nc2ccc(CN3CCN(C)CC3)c(C(F)(F)F)c2)cc1C#Cc1cnc2nc[nH]c2c1 | 890 nM | 3.4 nM | 42 nM | half-life [4]: 5.4 h; Tmax [5]: 6 h; Cmax [8]: 32.7 ng/mL; AUC ([9]; BLD = below limit of detection): BLD; clearance [12]: 34 mL/min/kg; Vd [13]: 15.9 L/kg
13 | Cc1ccc(C(=O)Nc2ccc(CN3CCN(C)CC3)c(C(F)(F)F)c2)cc1C#Cc1cnc2ncccn12 | 1500 nM | 10 nM | 500 nM | 
14 | Cc1ccc(C(=O)Nc2ccc(CN3CCCN(C)CC3)c(C(F)(F)F)c2)cc1C#Cc1cnc2ccccn12 | 1880 nM | 8.4 nM | 157 nM | 
15 | Cc1ccc(NC(=O)c2ccc(CN3CCN(C)CC3)c(C(F)(F)F)c2)cc1C#Cc1cnc2ccccn12 | 1800 nM | 2 nM | 50 nM | 
16 | Cc1ccc(C(=O)Nc2ccc(CN3CCN(C)CC3)c(C3CC3)c2)cc1C#Cc1cnc2cccnn12 | 1870 nM | 3.9 nM | 256 nM | 
17 | Cc1ccc(C(=O)Nc2cc(CN3CCN(C)CC3)cc(C(F)(F)F)c2)cc1C#Cc1cnc2ccccn12 | 5380 nM | 11 nM | 232 nM | 
18 | Cc1ccc(C(=O)Nc2cc(-n3cnc(CN4CCCC4)c3)cc(C(F)(F)F)c2)cc1C#Cc1cnc2ccccn12 | 3540 nM | 9.4 nM | 135 nM | 

Row | Structure (SMILES) | IC50 [1] | IC50 [2] | IC50 [3] | further results
19 | Cc1ccc(C(=O)Nc2cc(-n3ccnc3)cc(C(F)(F)F)c2)cc1C#Cc1cnc2c(N)cccn12 | 10000 nM | 8.6 nM | 72 nM | half-life [4]: 15.8 h; Tmax [5]: 1 h; bioavailability [6]: 5.5%; Cmax [8]: 234 ng/mL; AUC [9]: 151.9 ng·h/mL/mg/kg; half-life [10]: 5.2 h; clearance [12]: 6 mL/min/kg; Vd [13]: 8.2 L/kg
20 | Cc1ccc(C(=O)Nc2ccc(OC3CCN(C)CC3)c(C(F)(F)F)c2)cc1C#Cc1cnc2ccccn12 | 1010 nM | 3.4 nM | 77 nM | 
21 | Cc1ccc(C(=O)Nc2ccc(CN3CCN(CCO)CC3)c(C(F)(F)F)c2)cc1C#Cc1cnc2ccccn12 | 1960 nM | 2.3 nM | 42 nM | 
22 | Cc1ccc(C(=O)Nc2ccc(CN3CCN(C)CC3)c(C(F)(F)F)c2)cc1/C=C/c1cnc2cccnn12 | 3240 nM | 7.9 nM | 211 nM | 
23 | CC(=O)Nc1cccn2c(C#Cc3cc(C(=O)Nc4cc(-n5ccnc5)cc(C(F)(F)F)c4)ccc3C)cnc12 | 7390 nM | 11 nM | 44 nM | 
24 | Cc1ccc(C(=O)Nc2cc(C(F)(F)F)on2)cc1/C=C/n1cnc2c(NC3CC3)ncnc21 |  | 12 nM | 7120 nM | 
25 | Cc1ccc(C(=O)Nc2ccc(CN3CCN(C)CC3)c(C(F)(F)F)c2)cc1C#Cc1cnc2cccnn12 [PONATINIB] |  | 1.2 nM | 8.8 nM | half-life [4]: 10.2 h; Tmax [5]: 6 h; bioavailability [6]: 18.2%; AUC [9]: 278.5 ng·h/mL/mg/kg; half-life [10]: 11 h; clearance [12]: 10.8 mL/min/kg; Vd [13]: 9.7 L/kg
26 | Cc1ccc(C(=O)Nc2cc(C(F)(F)F)ccn2)cc1C#Cn1cnc2c(NC3CC3)ncnc21 |  | 2 nM | 548 nM | AUC [9]: 11.8 ng·h/mL/mg/kg; half-life [10]: 1.5 h
27 | Cc1ccc(C(=O)Nc2ccc(CN3CCN(CCF)CC3)c(C(F)(F)F)c2)cc1C#Cc1cnc2ccccn12 | 971 nM | 4 nM | 166 nM | 
28 | Cc1ccc(C(=O)Nc2cc(-n3ccnc3)cc(C(F)(F)F)c2)cc1/C=C/n1cnc2c(NC3CC3)ncnc21 |  | 4.2 nM |  | 
29 | Cc1ccc(C(=O)Nc2ccc(CN3CCN(C)CC3)c(C(F)(F)F)c2)cc1C#Cc1cnc2[nH]ccc2c1 | 2020 nM | 4.4 nM | 14 nM | half-life [4]: 10.9 h; Tmax [5]: 6 h; bioavailability [6]: 15%; Cmax [8]: 71 ng/mL; AUC [9]: 119 ng·h/mL/mg/kg; half-life [10]: 14.3 h; clearance [12]: 20.8 mL/min/kg; Vd [13]: 19.6 L/kg
30 | Cc1ccc(C(=O)Nc2ccc(CN3CCNCC3)c(C(F)(F)F)c2)cc1C#Cc1cnc2ccccn12 | 2080 nM | 3.5 nM | 22 nM | 
31 | Cc1ccc(C(=O)Nc2cc(C(F)(F)F)ccn2)cc1/C=C/n1cnc2c(NC3CC3)ncnc21 |  | 4.8 nM |  | 
32 | CN1CCN(Cc2ccc(NC(=O)c3cccc(C#Cc4cnc5cccnn45)c3)cc2C(F)(F)F)CC1 | 4210 nM | 2.3 nM | 39 nM | 
33 | Cc1ccc(C(=O)Nc2ccc(CN3CCN(C)CC3)c(C(F)(F)F)c2)cc1CCc1cnc2cccnn12 | 6000 nM | 4.3 nM | 295 nM | 
34 | Cc1ccc(C(=O)Nc2cc(-n3ccnc3CN(C)C)cc(C(F)(F)F)c2)cc1C#Cc1cnc2ccccn12 | 7010 nM | 11 nM | 251 nM | 
35 | Cc1ccc(C(=O)Nc2ccc(CN3CCNC(C)C3)c(C(F)(F)F)c2)cc1C#Cc1cnc2ccccn12 (centres undefined) | 3970 nM | 9.5 nM | 203 nM | 
